Test results: patent publication US20240382483A1, “HETEROCYCLIC EGFR INHIBITORS FOR USE IN THE TREATMENT OF CANCER” (Blueprint Medicines Corporation, priority 2021, published 2024)
Where two headings read alike, the source gives them in different places.

Key:
EGFR (L858R T790M C797S) = biological target: T1, EGFR (L858R T790M C797S) (Homo sapiens, UniProt P00533, C797S/L858R/T790M); assay: Biochemical EGFR inhibition assay (Caliper mobility shift), EGFR LRTMCS
T1 construct: purchased SignalChem E10-122VG
Summary of the method: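 Kinase reactions proceed at 25° C. to 10%–20% conversion of total peptide, are terminated with 35 mM EDTA, and the phosphopeptide is resolved from substrate by electrophoretic mobility shift. Apparent IC50 values come from plotting percent activity against log compound concentration.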

[1] = biological target: T2, intracellular phosphorylation of EGFR in NCI-H1975 cell line that harbors the EGFR L858R T790M mutations (Homo sapiens, UniProt P00533, L858R/T790M); assay: NCI-H1975 pEGFR AlphaLISA assay; type: cell-based; details: NCI-H1975 cells (EGFR L858R T790M), p-EGFR (Tyr1068), 4-5 hours incubation; read-out: Ext pEGFR H1975 GMean IC50 (nM) Protocol: @Pharmaron AlphaLISA (Num)
T2 construct: NCI-H1975 cell line that harbors the EGFR L858R T790M mutations (ATCC, CRL-5908); host or cells: NCI-H1975
Experimental: On the next day, the test compounds and DMSO control were added into H1975 cell plate followed by incubation at 37C/5% CO2 for 4-5 hours. […] Then 5 μL of a donor bead mix was added to each well followed by overnight incubation at room temperature in dark. On the next day, the plate was read at a compatible plate reader to obtain pEGFR signal. Percent of pEGFR inhibition was plotted against log concentration of compounds to generate IC50 values.

[2] = LRTMCS (PH) IC50 (nM) @ 1 mM ATP (Num), EGFR LRTMCS mutant

T2 sequence (P00533 25-1210 T790M/L858R): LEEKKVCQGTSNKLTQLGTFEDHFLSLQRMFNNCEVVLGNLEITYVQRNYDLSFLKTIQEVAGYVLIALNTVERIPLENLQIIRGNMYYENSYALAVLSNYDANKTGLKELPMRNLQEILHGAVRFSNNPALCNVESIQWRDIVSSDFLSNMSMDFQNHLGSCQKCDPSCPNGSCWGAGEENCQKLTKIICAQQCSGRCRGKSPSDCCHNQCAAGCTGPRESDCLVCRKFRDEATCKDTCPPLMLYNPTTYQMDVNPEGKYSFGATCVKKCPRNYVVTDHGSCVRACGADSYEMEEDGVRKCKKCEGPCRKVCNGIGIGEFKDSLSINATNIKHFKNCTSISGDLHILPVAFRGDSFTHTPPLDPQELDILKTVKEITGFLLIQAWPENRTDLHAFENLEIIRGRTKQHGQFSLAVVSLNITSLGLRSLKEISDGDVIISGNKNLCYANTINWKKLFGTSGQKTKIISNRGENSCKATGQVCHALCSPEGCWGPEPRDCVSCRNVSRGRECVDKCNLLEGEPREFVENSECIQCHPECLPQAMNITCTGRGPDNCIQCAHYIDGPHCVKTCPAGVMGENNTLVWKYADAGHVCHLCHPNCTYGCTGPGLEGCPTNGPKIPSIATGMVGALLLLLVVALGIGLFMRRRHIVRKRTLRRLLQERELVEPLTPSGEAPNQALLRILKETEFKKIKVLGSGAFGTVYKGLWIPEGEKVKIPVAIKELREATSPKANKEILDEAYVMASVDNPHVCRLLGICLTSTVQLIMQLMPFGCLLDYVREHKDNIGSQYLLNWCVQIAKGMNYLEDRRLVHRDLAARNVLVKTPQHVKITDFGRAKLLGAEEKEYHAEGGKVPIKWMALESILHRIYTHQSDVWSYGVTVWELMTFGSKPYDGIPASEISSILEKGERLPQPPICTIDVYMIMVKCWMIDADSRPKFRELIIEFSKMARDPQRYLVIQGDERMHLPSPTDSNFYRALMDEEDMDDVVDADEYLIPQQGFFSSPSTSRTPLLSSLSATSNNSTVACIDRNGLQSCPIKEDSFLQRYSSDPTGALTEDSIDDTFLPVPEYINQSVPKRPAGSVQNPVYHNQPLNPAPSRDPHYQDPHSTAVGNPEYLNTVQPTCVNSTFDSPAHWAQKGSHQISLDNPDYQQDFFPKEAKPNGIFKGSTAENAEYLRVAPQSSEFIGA
T1 sequence (P00533 25-1210 T790M/C797S/L858R): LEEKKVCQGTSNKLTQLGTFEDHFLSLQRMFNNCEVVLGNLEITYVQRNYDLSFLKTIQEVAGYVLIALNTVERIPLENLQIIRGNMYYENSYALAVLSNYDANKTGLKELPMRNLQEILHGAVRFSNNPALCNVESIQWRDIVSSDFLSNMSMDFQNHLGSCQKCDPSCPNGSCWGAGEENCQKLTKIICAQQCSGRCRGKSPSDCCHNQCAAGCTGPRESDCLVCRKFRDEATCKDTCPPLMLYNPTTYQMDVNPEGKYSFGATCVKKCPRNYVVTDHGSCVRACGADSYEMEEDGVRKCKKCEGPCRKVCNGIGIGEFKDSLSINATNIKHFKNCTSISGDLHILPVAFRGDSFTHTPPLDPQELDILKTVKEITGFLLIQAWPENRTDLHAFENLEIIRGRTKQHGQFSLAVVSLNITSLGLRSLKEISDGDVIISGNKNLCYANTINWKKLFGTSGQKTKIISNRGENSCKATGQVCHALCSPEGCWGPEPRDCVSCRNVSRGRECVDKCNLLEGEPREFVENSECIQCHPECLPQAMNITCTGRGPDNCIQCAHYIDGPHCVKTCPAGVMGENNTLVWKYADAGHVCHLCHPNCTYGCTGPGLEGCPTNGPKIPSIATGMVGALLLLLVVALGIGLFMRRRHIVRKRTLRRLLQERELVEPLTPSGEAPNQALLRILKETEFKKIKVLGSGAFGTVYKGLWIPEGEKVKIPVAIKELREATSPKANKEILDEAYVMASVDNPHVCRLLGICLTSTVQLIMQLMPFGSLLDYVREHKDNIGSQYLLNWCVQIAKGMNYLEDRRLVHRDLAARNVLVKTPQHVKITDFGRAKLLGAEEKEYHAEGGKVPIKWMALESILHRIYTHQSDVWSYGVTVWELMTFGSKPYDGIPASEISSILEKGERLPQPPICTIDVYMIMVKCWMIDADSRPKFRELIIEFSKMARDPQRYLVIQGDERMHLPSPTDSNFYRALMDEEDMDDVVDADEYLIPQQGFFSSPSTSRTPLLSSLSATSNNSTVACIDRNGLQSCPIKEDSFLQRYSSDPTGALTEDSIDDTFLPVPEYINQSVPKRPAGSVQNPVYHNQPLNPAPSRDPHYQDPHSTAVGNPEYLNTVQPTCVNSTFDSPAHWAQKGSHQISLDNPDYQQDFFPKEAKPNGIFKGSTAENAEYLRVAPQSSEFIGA

Row | Compound | IC50 (EGFR (L858R T790M C797S); read-out: LRTMCS (PH) IC50 (nM) @ 1 mM ATP (Num), EGFR LRTMCS mutant) [nM] | IC50 [1] [nM] | IC50 (EGFR (L858R T790M C797S); [2]) [nM]
1 | CNC(=O)C1(F)CN(c2ncc(C(C)C)c3cc(Nc4ccnc(N5CC[C@@H](O)[C@@](C)(F)C5)n4)ncc23)C1 [Example 85, 3-fluoro-1-(6-((2-((3S,4R)-3-fluoro-4-hydroxy-3-methylpiperidin-1-yl)pyrimidin-4-yl)amino)-4-isopropyl-2,7-naphthyridin-1-yl)-N-methylazetidine-3-carboxamide] | – | 30 to 50 | 20 to 30
2 | CC(C)c1cnc(N2C[C@H](O)[C@H]2C)c2cnc(Nc3ccnc(N4CC[C@@H](O)C5(CC5)C4)n3)cc12 (single isomer, unassigned) [Example 169, (R)-5-(4-((8-((2R,3S)-3-hydroxy-2-methylazetidin-1-yl)-5-isopropyl-2,7-naphthyridin-3-yl)amino)pyrimidin-2-yl)-5-azaspiro[2.5]octan-8-ol or (S)-5-(4-((8-((2R,3S)-3-hydroxy-2-methylazetidin-1-yl)-5-isopropyl-2,7-naphthyridin-3-yl)amino)pyrimidin-2-yl)-5-azaspiro[2.5]octan-8-ol] | – | 30 to 50 | < 15
3 | CO[C@@H]1CCN(c2nccc(Nc3cc4c(C(C)C)ncc(N5CC(C(=O)N(C)C)C5)c4cn3)n2)C[C@@H]1O (single isomer, unassigned) [Example 121, 1-(7-((2-((3S,4R)-3-hydroxy-4-methoxypiperidin-1-yl)pyrimidin-4-yl)amino)-1-isopropyl-2,6-naphthyridin-4-yl)-N,N-dimethylazetidine-3-carboxamide or 1-(7-((2-((3R,4S)-3-hydroxy-4-methoxypiperidin-1-yl)pyrimidin-4-yl)amino)-1-isopropyl-2,6-naphthyridin-4-yl)-N,N-dimethylazetidine-3-carboxamide] | – | > 50 | 30 to 100
4 | CC(C)c1cnc(N2CC3(CCS3(=O)=O)C2)c2cnc(Nc3ccnc(N4CC[C@@](C)(O)[C@@H](F)C4)n3)cc12 (single isomer, unassigned) [Example 175, 6-(6-((2-((3S,4R)-3-fluoro-4-hydroxy-4-methylpiperidin-1-yl)pyrimidin-4-yl)amino)-4-isopropyl-2,7-naphthyridin-1-yl)-1-thia-6-azaspiro[3.3]heptane 1,1-dioxide or 6-(6-((2-((3R,4S)-3-fluoro-4-hydroxy-4-methylpiperidin-1-yl)pyrimidin-4-yl)amino)-4-isopropyl-2,7-naphthyridin-1-yl)-1-thia-6-azaspiro[3.3]heptane 1,1-dioxide] | – | > 50 | < 15
5 | CO[C@H]1CCN(c2nccc(Nc3cc4c(C(C)C)ccc(N5C[C@H](c6nncn6C)[C@H]5C)c4cn3)n2)C[C@@H]1O (single isomer, unassigned) [Example 218] | – | 30 to 50 | < 15
6 | CC(C)c1cnc(N2CC[C@H]2C)c2cnc(Nc3ccnc(N4CCC(O)(CO)CC4)n3)cc12 [Example 131, (R)-4-(hydroxymethyl)-1-(4-((5-isopropyl-8-(2-methylazetidin-1-yl)-2,7-naphthyridin-3-yl)amino)pyrimidin-2-yl)piperidin-4-ol] | – | > 50 | 15 to 20
7 | C[C@H](CO)c1ccc(N2CC[C@H]2C)c2cnc(Nc3ccnc(N4CC[C@@H](O)[C@@](C)(F)C4)n3)cc12 (single isomer, unassigned) [Example 158, (3S,4R)-3-fluoro-1-(4-((5-((S)-1-hydroxypropan-2-yl)-8-((R)-2-methylazetidin-1-yl)isoquinolin-3-yl)amino)pyrimidin-2-yl)-3-methylpiperidin-4-ol or (3S,4R)-3-fluoro-1-(4-((5-((R)-1-hydroxypropan-2-yl)-8-((R)-2-methylazetidin-1-yl)isoquinolin-3-yl)amino)pyrimidin-2-yl)-3-methylpiperidin-4-ol] | – | 30 to 50 | 15 to 20
8 | CCc1cnc(N2CC[C@@H]2C)c2cnc(Nc3ccnc(N4CC[C@@H](O)[C@@](C)(F)C4)n3)cc12 (single isomer, unassigned) [Example 181, (3S,4R)-1-(4-((5-ethyl-8-((S)-2-methylazetidin-1-yl)-2,7-naphthyridin-3-yl)amino)pyrimidin-2-yl)-3-fluoro-3-methylpiperidin-4-ol or (3S,4R)-1-(4-((5-ethyl-8-((R)-2-methylazetidin-1-yl)-2,7-naphthyridin-3-yl)amino)pyrimidin-2-yl)-3-fluoro-3-methylpiperidin-4-ol] | – | 30 to 50 | 15 to 20

More lines, now with the values ahead:

Row | IC50 (EGFR (L858R T790M C797S); read-out: LRTMCS (PH) IC50 (nM) @ 1 mM ATP (Num), EGFR LRTMCS mutant) [nM] | IC50 [1] [nM] | IC50 (EGFR (L858R T790M C797S); [2]) [nM] | Compound
9 | < 15 | 10 to 20 | – | CC(C)c1cnc(N2CC[C@@H](CS(C)(=O)=O)C2)c2cnc(Nc3ccnc(N4CC[C@@H](O)[C@@](C)(F)C4)n3)cc12 (single isomer, unassigned) [Example 208, (3S,4R)-3-fluoro-1-(4-((5-isopropyl-8-((R)-3-((methylsulfonyl)methyl)pyrrolidin-1-yl)-2,7-naphthyridin-3-yl)amino)pyrimidin-2-yl)-3-methylpiperidin-4-ol or (3S,4R)-3-fluoro-1-(4-((5-isopropyl-8-((S)-3-((methylsulfonyl)methyl)pyrrolidin-1-yl)-2,7-naphthyridin-3-yl)amino)pyrimidin-2-yl)-3-methylpiperidin-4-ol]
10 | – | 20 to 30 | < 15 | CC(C)c1cnc(N2CC(F)C2)c2cnc(Nc3ccnc(N4CC[C@@H](O)[C@@](C)(F)C4)n3)cc12 [Example 47, (3S,4R)-3-fluoro-1-(4-((8-(3-fluoroazetidin-1-yl)-5-isopropyl-2,7-naphthyridin-3-yl)amino)pyrimidin-2-yl)-3-methylpiperidin-4-ol]
11 | – | 20 to 30 | 15 to 20 | CC(C)c1cnc(N2CCC3(C2)CC3(F)F)c2cnc(Nc3ccnc(N4CC[C@@H](O)[C@@](C)(F)C4)n3)cc12 (stereo partly drawn) [Example 63, (3S,4R)-1-(4-((8-(1,1-difluoro-5-azaspiro[2.4]heptan-5-yl)-5-isopropyl-2,7-naphthyridin-3-yl)amino)pyrimidin-2-yl)-3-fluoro-3-methylpiperidin-4-ol]
12 | – | 10 to 20 | < 15 | CC(C)c1cnc(N2CC(C)(C(=O)N(C)C)C2)c2cnc(Nc3ccnc(N4CC[C@@H](O)[C@@](C)(F)C4)n3)cc12 [Example 93, 1-(6-((2-((3S,4R)-3-fluoro-4-hydroxy-3-methylpiperidin-1-yl)pyrimidin-4-yl)amino)-4-isopropyl-2,7-naphthyridin-1-yl)-N,N,3-trimethylazetidine-3-carboxamide]
13 | – | 20 to 30 | 15 to 20 | CC(C)c1cnc(N2CC(CCO)C2)c2cnc(Nc3ccnc(N4CC[C@@H](O)[C@@](C)(F)C4)n3)cc12 [Example 77, (3S,4R)-3-fluoro-1-(4-((8-(3-(2-hydroxyethyl)azetidin-1-yl)-5-isopropyl-2,7-naphthyridin-3-yl)amino)pyrimidin-2-yl)-3-methylpiperidin-4-ol]
14 | – | 20 to 30 | < 15 | CC(C)c1cnc(N2C[C@H](O)[C@H]2C)c2cnc(Nc3ccnc(N4C[C@@H](F)[C@@H](O)[C@](C)(F)C4)n3)cc12 (single isomer, unassigned) [Example 136, (3R,4R,5R)-3,5-difluoro-1-(4-((8-((2R,3S)-3-hydroxy-2-methylazetidin-1-yl)-5-isopropyl-2,7-naphthyridin-3-yl)amino)pyrimidin-2-yl)-3-methylpiperidin-4-ol or (3S,4S,5S)-3,5-difluoro-1-(4-((8-((2R,3S)-3-hydroxy-2-methylazetidin-1-yl)-5-isopropyl-2,7-naphthyridin-3-yl)amino)pyrimidin-2-yl)-3-methylpiperidin-4-ol]
